Results on 13 compounds are retold here after patent publication US8044053B2, “Sulfonamide substituted pyrazoline compounds, their preparation and use as CB1 modulators” (Laboratories del Dr. Esteve, S.A., priority 2006, dated 2011).

In experiment [1] the target is CB1-receptor (UniProt P20272). Put plainly: In-vitro determination of affinity (binding) to CB1-receptors, radioligand [3H]-CP55940. On the set-up: % inh; 10^−7 M; compound at 10^−7 M; species or system human or rat. As to conditions: compound at 10^−7 M. Here is the method: (§1) I. In-Vitro Determination of Affinity to CB1/CB2-Receptors
(§2) The in-vitro determination of the affinity of the inventive substituted pyrazoline compounds to CB1/CB2-Rezeptors is carried out as described in the publication of Ruth A. Ross, Heather C. Brockie et al., “Agonist-inverse agonist characterisation at CB1 and CB2 cannabinoid receptors of L-759633, L759656 and AM630”, British Journal of Pharmacology, 126, 665-672, (1999), whereby the transfected human CB1 and CB2 receptors of Receptor Biology, Inc. are used. The radioligand used for both receptors is [^3H]-CP55940. The respective parts of the description is hereby incorporated by reference and forms part of the present disclosure.
(§3) Rat Cerebellum CB1 Binding
(§4) Binding affinity to CB1 receptor was evaluated according to a modification of the method described by Govaerts et al., Eur J Pharmac Sci 23, 233-243 (2004). The respective parts of the description is hereby incorporated by reference and forms part of the present disclosure.
(§5) Briefly, cerebellum from male wistar rats (250-300 g) were carefully dissected on ice and homogenates were prepared with Potter-Helveheim in a cold 50 mM Tris-HCl solution containing 5 mM MgCl2, 1 mM EDTA and 0.25 M sucrose, pH 7.4. The suspension was centrifuged at 1,000×g for 5 minutes. The supernatants were collected and centrifuged 50,000×g for 15 minutes. The resulting pellets were then resuspended in Tris-HCl buffer without sucrose, homogenised and incubated for 15 min at 37° C. in an orbital shaker bath and centrifuged again at 50,000×g for 15 min. Pellets were weighted, resuspended in Tris-HCl buffer without sucrose, homogenised with Ultraturrax at 13,500 rpm for 3×5 seconds and alicuoted in 0.9 ml volumes in Eppendorf tubes. Alicuotes were centrifuged at 20,800×g for 5 minutes, supernatants discarded and pellets were frozen at −80° C. until use. Total protein concentration was determined using the Bio-Rad Lowry method based kit. Competitive binding experiments were performed in presence of 1 nM [^3H]-CP 55,940 in siliconised glass tubes containing 100 μg protein/tube resuspended in 1 ml final volume of 50 mM Tris-HCl, 5 mM MgCl2, 1 mM EDTA, 0.5% (w/v) bovine serum albumin, pH 7.4. Compounds were present at various concentrations and the non specific binding was determined in the presence of 10 μM HU-210. After 1 hour incubation at 30° C., the suspension was rapidly filtered through 0.5% PEI pre-treated GF/B fiber filters on a 96-well harvester and washed 3 times with 3 ml ice-cold binding buffer without bovine serum albumin. Radioactivity on filters was measured with Wallac Winspectral 1414 counter by liquid scintillation in 6 ml Ecoscint H (National Diagnostics, U.K.). Assays were made in triplicates.
(§6) Binding data were analysed by non-linear regression with the software GraphPad Prism Version 3.03.
(§7) The binding of the pyrazoline compounds of general formulae I, Ia and Ib to CB1-receptors was determined according to the method described in the section Pharmacological Methods, Part I.

Experiment [2] deals with CB1-receptor (UniProt P20272). Described as above. Also noted: IC50; Ki; species or system human or rat. As to conditions: Pharmacological Methods Part I. Here is the method:
as §1, §2, §3, §4, §5, §6, §7

Take `Cc1cc(C)c(S(=O)(=O)NCC2=NN(c3ccc(Cl)cc3Cl)C(c3ccc(Cl)cc3)C2)c(C)c1` (stereo not shown) [Example 40, N-[5-(4-Chloro-phenyl)-1-(2,4-dichloro-phenyl)-4,5-dihydro-1H-pyrazol-3-ylmethyl]-2,4,6-trimethyl-benzenesulfonamide]: at CB1-receptor [1], the “% inh. 10^−7 M” value is 51.9%. Besides, on CB1-receptor [2], the IC50 (in general, the concentration at which inhibition is half-maximal) was 97 nM and affinity was put at a Ki of 43.9 nM.

For the compound `O=S(=O)(NCC1=NN(c2ccc(Cl)cc2Cl)C(c2ccc(Cl)cc2)C1)C1=C(Cl)NC2SC=CN12` (stereo not shown) [Example 32, 6-Chloro-7,7a-dihydro-imidazo[2,1-b]thiazole-5-sulfonic acid [5-(4-chloro-phenyl)-1-(2,4-dichloro-phenyl)-4,5-dihydro-1H-pyrazol-3-ylmethyl]-amide], the “% inh. 10^−7 M” value on CB1-receptor [1] is on record as 20.0%. Also, the IC50 at CB1-receptor [2] turned out to be 121 nM.

For `CC1(C)C2CCC1(CS(=O)(=O)NCC1=NN(c3ccc(Cl)cc3Cl)C(c3ccc(Cl)cc3)C1)C(=O)C2` (stereo not shown) [Example 7, N-[5-(4-Chloro-phenyl)-1-(2,4-dichloro-phenyl)-4,5-dihydro-1H-pyrazol-3-ylmethyl]-C-(7,7-dimethyl-2-oxo-bicyclo[2.2.1]hept-1-yl)-methanesulfonamide], the “% inh. 10^−7 M” value at CB1-receptor [1] came out at 11.9%. This compound also showed an IC50 at CB1-receptor [2] of 184 nM.

Regarding `O=S(=O)(NCC1=NN(c2ccc(Cl)cc2Cl)C(c2ccc(Cl)cc2)C1)c1cccc(C(F)(F)F)c1` (stereo not shown) [Example 18, N-[5-(4-Chloro-phenyl)-1-(2,4-dichloro-phenyl)-4,5-dihydro-1H-pyrazol-3-ylmethyl]-3-trifluoromethyl-benzenesulfonamide], on CB1-receptor [1], the “% inh. 10^−7 M” value turned out to be 26.1%. Besides, the IC50 on CB1-receptor [2] was determined as 140 nM.

On to `Cc1ccc(C)c(S(=O)(=O)NCC2=NN(c3ccc(Cl)cc3Cl)C(c3ccc(Cl)cc3)C2)c1` (stereo not shown) [Example 44, N-[5-(4-Chloro-phenyl)-1-(2,4-dichloro-phenyl)-4,5-dihydro-1H-pyrazol-3-ylmethyl]-2,5-dimethyl-benzenesulfonamide], for which the “% inh. 10^−7 M” value at CB1-receptor [1] is listed as 54.1%. Besides, at CB1-receptor [2], the IC50 is 15 nM and the Ki (usually a measure of affinity in units of concentration, obtained from inhibition or displacement) was 7.3 nM.

With `O=S(=O)(NCC1=NN(c2ccc(Cl)cc2Cl)C(c2ccc(Cl)cc2)C1)c1ccccc1Cl` (stereo not shown) [Example 23, 2-Chloro-N-[5-(4-chloro-phenyl)-1-(2,4-dichloro-phenyl)-4,5-dihydro-1H-pyrazol-3-ylmethyl]-benzenesulfonamide], the “% inh. 10^−7 M” value on CB1-receptor [1] was determined as 54.9%. Besides, the IC50 on CB1-receptor [2] was found to be 183 nM.

As for `O=S(=O)(Cc1ccccc1)NCC1=NN(c2ccc(Cl)cc2Cl)C(c2ccc(Cl)cc2)C1` (stereo not shown) [Example 12, N-[5-(4-Chloro-phenyl)-1-(2,4-dichloro-phenyl)-4,5-dihydro-1H-pyrazol-3-ylmethyl]-C-phenyl-methanesulfonamide], the “% inh. 10^−7 M” value on CB1-receptor [1] is listed as 39.4%. For the same compound, on CB1-receptor [2], the IC50 amounted to 130 nM.

Regarding `Cc1cccc(Cl)c1S(=O)(=O)NCC1=NN(c2ccc(Cl)cc2Cl)C(c2ccc(Cl)cc2)C1` (stereo not shown) [Example 34, 2-Chloro-N-[5-(4-chloro-phenyl)-1-(2,4-dichloro-phenyl)-4,5-dihydro-1H-pyrazol-3-ylmethyl]-6-methyl-benzenesulfonamide], on CB1-receptor [1], the “% inh. 10^−7 M” value is 53.8%. The compound also gave an IC50 at CB1-receptor [2] of 14.1 nM.

On to `Cc1ccc(F)cc1S(=O)(=O)NCC1=NN(c2ccc(Cl)cc2Cl)C(c2ccc(Cl)cc2)C1` (stereo not shown) [Example 38, N-[5-(4-Chloro-phenyl)-1-(2,4-dichloro-phenyl)-4,5-dihydro-1H-pyrazol-3-ylmethyl]-5-fluoro-2-methyl-benzenesulfonamide], for which the “% inh. 10^−7 M” value at CB1-receptor [1] turned out to be 74.0%. At CB1-receptor [2], this compound yielded an IC50 of 4.4 nM.

Regarding `Cc1cc(S(=O)(=O)NCC2=NN(c3ccc(Cl)cc3Cl)C(c3ccc(Cl)cc3)C2)c(C)cc1Cl` (stereo not shown) [Example 39, 4-Chloro-N-[5-(4-chloro-phenyl)-1-(2,4-dichloro-phenyl)-4,5-dihydro-1H-pyrazol-3-ylmethyl]-2,5-dimethyl-benzenesulfonamide], on CB1-receptor [1], the “% inh. 10^−7 M” value came to 53.2%. This compound registered an IC50 on CB1-receptor [2] of 20.6 nM.

Regarding `N#Cc1cccc(S(=O)(=O)NCC2=NN(c3ccc(Cl)cc3Cl)C(c3ccc(Cl)cc3)C2)c1` (stereo not shown) [Example 10, N-((5-(4-chlorophenyl)-1-(2,4-dichlorophenyl)-4,5-dihydro-1H-pyrazol-3-yl)methyl)-3-cyanobenzenesulfonamid], the “% inh. 10^−7 M” value on CB1-receptor [1] amounted to 48.6%. Also, the IC50 on CB1-receptor [2] was 70 nM.

As for `CCS(=O)(=O)NCC1=NN(c2ccc(Cl)cc2Cl)C(c2ccc(Cl)cc2)C1` (stereo not shown) [Example 14, Ethanesulfonic acid [5-(4-chloro-phenyl)-1-(2,4-dichloro-phenyl)-4,5-dihydro-1H-pyrazol-3-ylmethyl]-amide], the “% inh. 10^−7 M” value at CB1-receptor [1] is given as 76.6%. Further, at CB1-receptor [2], the 50% inhibitory concentration (IC50) is 458 nM.

With `CCCS(=O)(=O)NCC1=NN(c2ccc(Cl)cc2Cl)C(c2ccc(Cl)cc2)C1` (stereo not shown) [Example 21, Propane-1-sulfonic acid [5-(4-chloro-phenyl)-1-(2,4-dichloro-phenyl)-4,5-dihydro-1H-pyrazol-3-ylmethyl]-amide], on CB1-receptor [1], the “% inh. 10^−7 M” value turned out to be 80.6%. Moreover, the IC50 on CB1-receptor [2] was found to be 263 nM.
